We go through 16 molecules from ChEMBL document CHEMBL2073979, “Molecular cloning and characterization of a new multispecific organic anion transporter from rat brain” (J Biol Chem, 1999).

Data set [1] deals with T1, Organic anion transporter 3 (Rattus norvegicus, UniProt Q9R1U7).
T1 sequence (Q9R1U7 whole entry): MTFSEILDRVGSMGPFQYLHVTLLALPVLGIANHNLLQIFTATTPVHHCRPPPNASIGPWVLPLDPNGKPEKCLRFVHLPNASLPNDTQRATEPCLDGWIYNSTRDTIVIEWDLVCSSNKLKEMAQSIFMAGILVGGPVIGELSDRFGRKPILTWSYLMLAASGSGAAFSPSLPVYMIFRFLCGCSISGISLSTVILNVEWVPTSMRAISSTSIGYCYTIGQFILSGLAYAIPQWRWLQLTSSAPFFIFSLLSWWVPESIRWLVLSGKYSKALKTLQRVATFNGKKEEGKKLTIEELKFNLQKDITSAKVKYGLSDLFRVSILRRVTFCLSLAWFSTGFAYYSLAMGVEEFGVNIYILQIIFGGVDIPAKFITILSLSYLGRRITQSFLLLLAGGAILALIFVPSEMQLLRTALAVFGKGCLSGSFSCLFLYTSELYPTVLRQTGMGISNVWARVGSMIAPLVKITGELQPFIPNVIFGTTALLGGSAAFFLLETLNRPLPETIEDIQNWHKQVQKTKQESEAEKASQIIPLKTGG
Nature of the data set: TP_TRANSPORTER: inhibition of E1S uptake (E1S: 40 uM, ICG: 1000 uM) in Xenopus laevis oocytes. The class given is functional, cell-based. The settings on record: oocyte.

For data set [2], the target named is T1, Organic anion transporter 3. Description: TP_TRANSPORTER: inhibition of E1S uptake (E1S: 40 uM, Probenecid: 1000 uM) in Xenopus laevis oocytes. The class given is functional, cell-based. The conditions noted are these: oocyte.
The target is the same in data set [3]. Description: TP_TRANSPORTER: inhibition of E1S uptake (E1S: 40 uM, AZT: 1000 uM) in Xenopus laevis oocytes. It is filed as functional, cell-based. The conditions noted are these: oocyte.
For data set [4] the target is unchanged. Description: TP_TRANSPORTER: inhibition of E1S uptake (E1S: 40 uM, Piroxicam: 1000 uM) in Xenopus laevis oocytes. The conditions noted are these: oocyte. It is filed as functional, cell-based.
Data set [5] shares this target. Nature of the data set: TP_TRANSPORTER: inhibition of E1S uptake (E1S: 40 uM, Ouabain: 1000 uM) in Xenopus laevis oocytes. The settings on record: oocyte. It is filed as functional, cell-based.
Data set [6] has the same target. Nature of the data set: TP_TRANSPORTER: inhibition of E1S uptake (E1S: 40 uM, DIDS: 1000 uM) in Xenopus laevis oocytes. It is filed as functional, cell-based. The conditions noted are these: oocyte.
Data set [7] has the same target. Description: TP_TRANSPORTER: inhibition of E1S uptake (E1S: 40 uM, Bumetanide: 1000 uM) in Xenopus laevis oocytes. The conditions noted are these: oocyte. The class given is functional, cell-based.
For data set [8], the target named is T2, Organic anion transporter 3 (OAT3) (Rattus norvegicus, UniProt Q9R1U7).
T2 sequence (Q9R1U7 whole entry): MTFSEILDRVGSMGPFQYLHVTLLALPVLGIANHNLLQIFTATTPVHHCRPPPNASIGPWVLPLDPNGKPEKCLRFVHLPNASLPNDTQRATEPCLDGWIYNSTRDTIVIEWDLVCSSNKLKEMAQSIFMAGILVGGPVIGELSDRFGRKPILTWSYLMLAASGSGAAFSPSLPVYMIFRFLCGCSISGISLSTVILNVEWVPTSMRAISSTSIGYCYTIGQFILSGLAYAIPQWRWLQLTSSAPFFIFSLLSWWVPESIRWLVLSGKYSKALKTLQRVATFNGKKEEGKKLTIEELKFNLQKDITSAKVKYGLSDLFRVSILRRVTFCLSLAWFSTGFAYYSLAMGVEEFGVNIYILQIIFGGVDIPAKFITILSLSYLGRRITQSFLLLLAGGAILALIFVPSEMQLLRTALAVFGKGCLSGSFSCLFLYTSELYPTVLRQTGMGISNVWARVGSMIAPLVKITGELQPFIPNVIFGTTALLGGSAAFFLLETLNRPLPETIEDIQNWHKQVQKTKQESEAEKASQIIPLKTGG
Nature of the data set: (§1) TP_TRANSPORTER: uptake in Xenopus laevis oocytes. It is filed as functional, cell-based, Oocyte.

For data set [9], the target named is T1, Organic anion transporter 3. Nature of the data set: TP_TRANSPORTER: inhibition of E1S uptake (E1S: 40 uM, Cefoperazone: 1000 uM) in Xenopus laevis oocytes. The class given is functional, cell-based. The settings on record: oocyte.
Data set [10] has the same target. Nature of the data set: TP_TRANSPORTER: inhibition of E1S uptake (E1S: 40 uM, Furosemide: 1000 uM) in Xenopus laevis oocytes. The conditions noted are these: oocyte. It is filed as functional, cell-based.
For data set [11] the target is unchanged. Nature of the data set: TP_TRANSPORTER: inhibition of E1S uptake (E1S: 40 uM, Malatonin: 1000 uM) in Xenopus laevis oocytes. It is filed as functional, cell-based. The settings on record: oocyte.
Data set [12] shares this target. Nature of the data set: TP_TRANSPORTER: inhibition of E1S uptake (E1S: 40 uM, BSP: 1000 uM) in Xenopus laevis oocytes. It is filed as functional, cell-based. The settings on record: oocyte.
The target is the same in data set [13]. The description is as §1. The settings on record: oocyte. It is filed as functional, cell-based, Oocyte.
For data set [14] the target is unchanged. Description: TP_TRANSPORTER: inhibition of E1S uptake (E1S: 40 uM, Indomethacin: 1000 uM) in Xenopus laevis oocytes. The class given is functional, cell-based. The conditions noted are these: oocyte.
Data set [15] shares this target. Nature of the data set: TP_TRANSPORTER: inhibition of E1S uptake (E1S: 40 uM, MTX: 1000 uM) in Xenopus laevis oocytes. The class given is functional, cell-based. The conditions noted are these: oocyte.
Substrate in data set [16]: Nc1ccc(C(=O)NCC(=O)O)cc1
The description is as §1. The class given is functional, cell-based, Oocyte.

Substrate in data set [17]: C[C@]12CC[C@@H]3c4ccc(OS(=O)(=O)O)cc4CC[C@H]3[C@@H]1CCC2=O
The data set is described as §1. It is filed as functional, cell-based, Oocyte.

As for `CC1(C)C(/C=C/C=C/C=C/C=C2/N(CCCCS(=O)(=O)[O-])c3ccc4ccccc4c3C2(C)C)=[N+](CCCCS(=O)(=O)[O-])c2ccc3ccccc3c21.[Na+]` [INDOCYANINE GREEN], in data set [1], the Activity entry is “inhibitor [(at a rough estimate) 20 % of control]”.
Consider `CCCN(CCC)S(=O)(=O)c1ccc(C(=O)O)cc1` [PROBENECID], for which the Activity result in data set [2] was “inhibitor [(at a rough estimate) 15 % of control]”.
Consider `Cc1cn([C@H]2C[C@H](N=[N+]=[N-])[C@@H](CO)O2)c(=O)[nH]c1=O` [ZIDOVUDINE], for which the Activity result in data set [3] was “inhibitor [(at a rough estimate) 20 % of control]”.
As for `CN1C(C(=O)Nc2ccccn2)=C(O)c2ccccc2S1(=O)=O` [PIROXICAM], the Activity entry in [4] is “inhibitor [(at a rough estimate) 10 % of control]”.
In the case of `C[C@@H]1O[C@@H](O[C@H]2C[C@@H](O)[C@]3(CO)[C@H]4[C@H](O)C[C@]5(C)[C@@H](C6=CC(=O)OC6)CC[C@]5(O)[C@@H]4CC[C@]3(O)C2)[C@H](O)[C@H](O)[C@H]1O` [OUABAIN], the Activity result in [5] was “is not an inhibitor [-]”.
Consider `O=S(=O)(O)c1cc(N=C=S)ccc1/C=C/c1ccc(NC=S)cc1S(=O)(=O)O`, for which the Activity entry in [6] was “inhibitor [(at a rough estimate) 10 % of control]”.
For the molecule `CCCCNc1cc(C(=O)O)cc(S(N)(=O)=O)c1Oc1ccccc1` [BUMETANIDE], the Activity result in data set [7] is “inhibitor [(at a rough estimate) 20 % of control]”.
As to `C[C@@H]1Cc2c(Cl)cc(C(=O)N[C@@H](Cc3ccccc3)C(=O)O)c(O)c2C(=O)O1` [3R14S-OCHRATOXIN A], in [8], the Km is 0.739 µM.
Regarding `CCN1CCN(C(=O)N[C@@H](C(=O)N[C@@H]2C(=O)N3C(C(=O)O)=C(CSc4nnnn4C)CS[C@H]23)c2ccc(O)cc2)C(=O)C1=O` [CEFOPERAZONE], the Activity result in data set [9] is “inhibitor [(at a rough estimate) 40 % of control]”.
Take `NS(=O)(=O)c1cc(C(=O)O)c(NCc2ccco2)cc1Cl` [FUROSEMIDE]: the Activity result in [10] is “inhibitor [(at a rough estimate) 10 % of control]”.
Consider `COc1ccc2[nH]cc(CCNC(C)=O)c2c1` [MELATONIN], for which, in [11], the Activity entry was “inhibitor [(at a rough estimate) 10 % of control]”.
On to `O=C1OC(c2ccc(O)c(S(=O)(=O)[O-])c2)(c2ccc(O)c(S(=O)(=O)[O-])c2)c2c(Br)c(Br)c(Br)c(Br)c21.[Na+].[Na+]` [SULFOBROMOPHTHALEIN SODIUM], for which the Activity entry in data set [12] was “inhibitor [(at a rough estimate) 5 % of control]”.
With `CN/C(=N/CCSCc1nc[nH]c1C)NC#N` [CIMETIDINE], the Activity result in data set [13] is “substrate [+]”.
As for `COc1ccc2c(c1)c(CC(=O)O)c(C)n2C(=O)c1ccc(Cl)cc1` [INDOMETHACIN], the Activity entry in data set [14] is “is not an inhibitor [-]”.
In the case of `CN(Cc1cnc2nc(N)nc(N)c2n1)c1ccc(C(=O)N[C@@H](CCC(=O)O)C(=O)O)cc1` [METHOTREXATE], the Activity result in data set [15] is “inhibitor [(at a rough estimate) 35 % of control]”.

B1: Organic anion transporter 3 (Rattus norvegicus) (protein)
chain: MTFSEILDRVGSMGPFQYLHVTLLALPVLGIANHNLLQIFTATTPVHHCRPPPNASIGPWVLPLDPNGKPEKCLRFVHLPNASLPNDTQRATEPCLDGWIYNSTRDTIVIEWDLVCSSNKLKEMAQSIFMAGILVGGPVIGELSDRFGRKPILTWSYLMLAASGSGAAFSPSLPVYMIFRFLCGCSISGISLSTVILNVEWVPTSMRAISSTSIGYCYTIGQFILSGLAYAIPQWRWLQLTSSAPFFIFSLLSWWVPESIRWLVLSGKYSKALKTLQRVATFNGKKEEGKKLTIEELKFNLQKDITSAKVKYGLSDLFRVSILRRVTFCLSLAWFSTGFAYYSLAMGVEEFGVNIYILQIIFGGVDIPAKFITILSLSYLGRRITQSFLLLLAGGAILALIFVPSEMQLLRTALAVFGKGCLSGSFSCLFLYTSELYPTVLRQTGMGISNVWARVGSMIAPLVKITGELQPFIPNVIFGTTALLGGSAAFFLLETLNRPLPETIEDIQNWHKQVQKTKQESEAEKASQIIPLKTGG
As to B1, the figures for the Km in data set [16] and in data set [17] were 64.7 µM and 2.34 µM, respectively.

A word on the Km: it is the substrate concentration at which the rate is half of its maximum.
